In US20140377219A1, “HIV INHIBITORS” (New york Blood Center, Inc., priority 2011, published 2014):
Structures can show the parent of a compound that is named as a salt. Where two headings read alike, the source gives them in different places.

Assays:
MT-2 cells = experiment: Cytotoxicity in MT-2 cells (XTT); type: cell-based
Method: Cytotoxicity of small molecules in MT-2 cells and PBMC was measured by the XTT ((sodium 3′-(1-(phenylamino)-carbonyl)-3,4-tetrazolium-bis(4-methoxy-6-nitro)benzene-sulfonic acid hydrate)) method. Briefly, for MT-2 cells, 100 μl of a small molecule at graded concentrations was added to an equal volume of cells (10^5 cells/ml) in 96-well plates followed by incubation at 37° C. for four days, which ran parallel with the neutralization assay in MT-2 (except medium was added instead of virus). In the case of PBMC, 5×10^5 cells/ml was used and the cytotoxicity was measured after seven days. […] The percentage cytotoxicity and the CC50 values were calculated as described above.

[1] = test system: laboratory-adapted HIV-1 IIIB strain; conditions: read-out: MT-2 Cells IC50 (μM ± SD); multi-cycle assay, MT-2 cells, HIV-1 IIIB
Method: In brief, 1×10^4 MT-2 cells were infected with HIV-1 at 100 TCID50 (50% tissue culture infective dose) (0.01MOI) in 200 μl medium in the presence or absence of small molecules at graded concentrations and incubated overnight. The culture supernatants were then removed and replaced with fresh media. On the fourth day post-infection, 100 μl of culture supernatants were collected from each well, mixed with equal volume of 5% Triton X-100 and tested for p24 antigen by sandwich-ELISA. The percent inhibition of p24 production and IC50 values were calculated by the GraphPad Prism software (GraphPad Software Inc.).

TZM-bl cells = experiment: Cytotoxicity in TZM-bl cells (XTT); type: cell-based
Method: The cytotoxicity of small molecules in TZM-bl cells was measured by a colorimetric method using XTT (sodium 3′-(1-(phenylamino)-carbonyl)-3,4-tetrazolium-bis(4-methoxy-6-nitro)benzenesulfonic acid hydrate), a light yellowish tetrazolium dye. Briefly, 100 μl of a compound at graded concentrations was added to equal volume of cells (10^5/ml) in wells of 96-well plates followed by incubation at 37° C. for 3 days and addition of XTT (PolySciences, Inc., Warrington, Pa.).

[2] = MT-2 cells, XTT, four days, read-out: MT-2 Cells CC50
[3] = TZM-bl cells, XTT, 3 days, read-out: TZM-bl cells CC50 (μM ± SD)
[4] = at the dose given as CC50 bound

Structure (SMILES)	IC50 [1] [µM]	CC50 (MT-2 cells) [µM]	CC50 (TZM-bl cells) [µM]	other results
Cc1nc(C(NC(=O)C(=O)Nc2ccc(F)c(F)c2)C2CCCCN2)sc1CCO.Cl.Cl (stereo not drawn) [Compound 33, N^1-(3,4-difluorophenyl)-N^2-((5-(2-hydroxyethyl)-4-methylthiazol-2-yl)(piperidin-2-yl)methyl)oxalamide.2HCl]	24.1 ± 4.6			CC50 (MT-2 cells; [2]): > 78.2 µM; CC50 (TZM-bl cells; [3]): > 78.2 µM; % toxicity at that dose (number in parenthesis), TZM-bl cells (TZM-bl cells; [4]): 10%
Cc1nc(C(NC(=O)C(=O)Nc2ccc(F)cc2)C2CCCCN2)sc1CCO (stereo not drawn) [Compound 36, N^1-(4-fluorophenyl)-N^2-((5-(2-hydroxyethyl)-4-methylthiazol-2-yl)(piperidin-2-yl)methyl)oxalamide.HCl]		~109	> 88	
Cc1nc(C(NC(=O)C(=O)Nc2ccc(F)c(Cl)c2)C2CCCCN2)sc1CO.Cl.Cl (stereo not drawn) [Compound 24, N^1-(3-chloro-4-fluorophenyl)-N^2-((5-(hydroxymethyl)-4-methylthiazol-2-yl)(piperidin-2-yl)methyl)oxalamide.2HCl]	9.5 ± 1.4	> 77.8	> 77.8	% toxicity at that dose (number in parenthesis), TZM-bl cells (TZM-bl cells): >77.8 (0%)
CNCC(NC(=O)C(=O)Nc1ccc(Cl)cc1)c1nc(C)c(CCO)s1 (stereo not drawn) [Compound 16, N^1-(4-chlorophenyl)-N^2-(1-(5-(2-hydroxyethyl)-4-methylthiazol-2-yl)-2-(methylamino)ethyl)oxalamide.2HCl]	24.3 ± 2.2	> 43	16.6 ± 1	
CC(C)c1nccn1CCCNC(=O)CCC(=O)Nc1ccc(Cl)cc1 [Compound 48, N^1-(4-chlorophenyl)-N^4-(3-(2-isopropyl-1H-imidazol-1-yl)propyl)succinamide. HCOOH]	> 36	> 95	> 95	
Cc1nc(C(NC(=O)C(=O)Nc2ccc(F)c(Cl)c2)C2CCCCN2)sc1CCO.Cl.Cl (stereo not drawn) [Compound 35, N^1-(3-chloro-4-fluorophenyl)-N^2-((5-(2-hydroxyethyl)-4-methylthiazol-2-yl)(piperidin-2-yl)methyl)oxalamide.2HCl]	19.5 ± 1.8	~94.7	> 75.8	% toxicity at that dose (number in parenthesis), TZM-bl cells (TZM-bl cells): >75.8 (20%)
Cc1nc(C(NC(=O)C(=O)NC2CCCCCC2)C2CCCCN2)sc1CO (stereo not drawn) [Compound 29, N^1-cycloheptyl-N^2-((5-(hydroxymethyl)-4-methylthiazol-2-yl)(piperidin-2-yl)methyl)oxalamide.HCl]	39.3 ± 5			CC50 (MT-2 cells; [2]): > 90 µM; CC50 (TZM-bl cells; [3]): > 90 µM
Cc1nc(C(NC(=O)C(=O)Nc2ccc(Cl)cc2)C2CCCNC2)sc1CO (stereo not drawn) [Compound 7, N^1-(4-chlorophenyl)-N^2-((5-(hydroxymethyl)-4-methylthiazol-2-yl)(piperidin-3-yl)methyl)oxalamide.2HCl]	12 ± 1.1	> 81	~60.2	
Cc1nc(C(NC(=O)C(=O)Nc2ccc(Cl)cc2)C2CCCN2)sc1CO (stereo not drawn) [Compound 14, N^1-(4-chlorophenyl)-N^2-((5-(hydroxymethyl)-4-methylthiazol-2-yl)(pyrrolidin-2-yl)methyl)oxalamide.HCOOH]	15.4 ± 2.6	~45	12.4 ± 0.7	
Cc1nc(C(NC(=O)C(=O)Nc2ccc(Cl)cc2)C2CCCCN2C)sc1CCO (stereo not drawn) [Compound 12, N^1-(4-chlorophenyl)-N^2-((5-(2-hydroxyethyl)-4-methylthiazol-2-yl)(1-methylpiperidin-2-yl)methyl)oxalamide]				CC50 (TZM-bl cells; [3]): 36 ± 3.3 µM
COC(=O)[C@@H]1C[C@@H](NC(=O)C(=O)Nc2ccc(Cl)cc2)[C@H](c2ccccc2)N1 [Compound 18, (2S,4R,5S)-methyl 4-(2-(4-chlorophenylamino)-2-oxoacetamido)-5-phenyl pyrrolidine-2-carboxylate]	> 24.9			CC50 (MT-2 cells; [2]): > 99.6 µM; CC50 (TZM-bl cells; [3]): > 99.6 µM
Cc1nc(C(NC(=O)C(=O)Nc2ccc(Cl)cc2)C2CCNCC2)sc1CCO (stereo not drawn) [Compound 11, N^1-(4-chlorophenyl)-N^2-((5-(2-hydroxyethyl)-4-methylthiazol-2-yl)(piperidin-4-yl)methyl)oxalamide.2HCl]	30.5 ± 3.4	> 78.5	~85.4	
Cc1nc(C(NC(=O)C(=O)Nc2ccc(Cl)cc2)C2CCCN2)sc1CCO (stereo not drawn) [Compound 15, N^1-(4-chlorophenyl)-N^2-((5-(2-hydroxyethyl)-4-methylthiazol-2-yl)(pyrrolidin-2-yl)methyl)oxalamide.HCOOH]	16.2 ± 1.7	~42	~4.9	
Cc1nccn1CCCNC(=O)CCC(=O)Nc1ccc(Cl)cc1 [Compound 49, N^1-(4-chlorophenyl)-N^4-(3-(2-methyl-1H-imidazol-1-yl)propyl)succinamide. HCOOH]	> 38	> 102	102	
CN1CCN(C(=O)CNC(=O)CCC(=O)Nc2ccc(Cl)cc2)CC1 [Compound 47, N^1-(4-chlorophenyl)-N^4-(2-(4-methylpiperazin-1-yl)-2-oxoethyl)succinamide .HCOOH]	~48	~97	~36	
Cc1nc(C(NC(=O)C(=O)Nc2ccc(F)cc2)C2CCCCN2)sc1CO.Cl (stereo not drawn) [Compound 25, N^1-(4-fluorophenyl)-N^2-((5-(hydroxymethyl)-4-methylthiazol-2-yl)(piperidin-2-yl)methyl)oxalamide.HCl]	48 ± 5.5	> 113	> 90	% toxicity at that dose (number in parenthesis), TZM-bl cells (TZM-bl cells; [4]): 0%
Cc1nc(C(NC(=O)C(=O)Nc2ccc(Cl)cc2)C2CCCCN2)sc1CCO.O=CO (stereo not drawn) [Compound 30, N^1-(4-chlorophenyl)-N^2-((5-(2-hydroxyethyl)-4-methylthiazol-2-yl)(piperidin-2-yl)methyl)oxalamide.HCOOH]	4.2 ± 0.3			CC50 (MT-2 cells; [2]): > 62 µM; % toxicity at that dose (number in parenthesis), MT-2 cells (MT-2 cells; [4]): 0%; CC50 (TZM-bl cells; [3]): 32.8 ± 0.6 µM
Cc1nc(C(NC(=O)C(=O)Nc2ccc(F)c(F)c2)C2CCCCN2)sc1CO.Cl (stereo not drawn) [Compound 22, N^1-(3,4-difluorophenyl)-N^2-((5-(hydroxymethyl)-4-methylthiazol-2-yl)(piperidin-2-yl)methyl)oxalamide.HCl]	14 ± 3.8			CC50 (MT-2 cells; [2]): > 87 µM; CC50 (TZM-bl cells; [3]): > 87 µM; % toxicity at that dose (number in parenthesis), TZM-bl cells (TZM-bl cells; [4]): 0%
CC(=O)c1ccc(NC(=O)C(=O)NC(c2nc(C)c(CCO)s2)C2CCCCN2)cc1 (stereo not drawn) [Compound 34, N^1-(4-acetylphenyl)-N^2-((5-(2-hydroxyethyl)-4-methylthiazol-2-yl)(piperidin-2-yl)methyl)oxalamide.2HCl]	24.5 ± 1.5	> 48.3	> 77.3	
Cc1nc(C(NC(=O)C(=O)Nc2ccc(Cl)cc2)C2CCNCC2)sc1CO (stereo not drawn) [Compound 8, N^1-(4-chlorophenyl)-N^2-((5-(hydroxymethyl)-4-methylthiazol-2-yl)(piperidin-4-yl)methyl)oxalamide.2HCl]	29.8 ± 3.5	> 81	~81	
Cc1nc(C(NC(=O)C(=O)Nc2ccc(Cl)cc2)C2CCCCN2)sc1CCO.O=CO (stereo not drawn) [Compound 9, N^1-(4-chlorophenyl)-N^2-((5-(2-hydroxyethyl)-4-methylthiazol-2-yl)(piperidin-2-yl)methyl)oxalamide.HCOOH]	4.2 ± 0.2	> 62		% toxicity at that dose (number in parenthesis), MT-2 cells (MT-2 cells): 0%
